Molecules are shown by their SMILES. Like-named read-outs stand apart in the source and are kept apart here. Some results are limits rather than exact numbers.

For data set [1], the system named is P. falciparum asexual blood stages. The conditions noted are these: cited from earlier work; for IC50: read-out: Pf Asexual blood stages XC50.
Data set [2] relates to Plasmodium berghei asexual blood stages. Description: In vivo antimalarial therapeutic efficacy, P. berghei murine model. Further details: species or system CD1 mice. The protocol:
Two out of the six compounds progressed to SMFA, TCMDC-123767 (cluster 30) and TCMDC-141154 (cluster 4), were evaluated in vivo in the Plasmodium berghei murine model. Selection criteria was based on the compound potencies in both asexual stages and gametocytes in the Pf FGAA, as well as on their transmission-blocking activity observed in the SMFA (Table 1). Owing to compound availability, TCMDC-141154 had to be replaced by a close analogue from cluster 4: TCMDC-140549 (Supplementary Data 3). Compounds were tested at 50 mg kg^−1 single dose 2-day oral treatment and efficacy was measured as a reduction of asexual blood stages parasitaemia greater than 40% compared with the vehicle-treated mice.
Pathogen-free CD1 mice (Hsd:ICR) were obtained from Harlan Interfauna Iberica (Barcelona, Spain). Eight weeks old female CD-1 mice were infected intravenously with 10^7 infected erythrocytes (day 0). Dosing solutions were prepared in water containing 5% DMSO/20% Captisol, at a target dose of 50 mg kg^−1. Mice received two oral doses once a day according to their body weight (20 ml kg^−1) starting at day 2 after infection. Control mice received the same treatment schedule with the vehicle used for the compound preparation. Samples from mice peripheral blood were taken before starting treatment and 24 h after finishing the dosing, to measure parasitaemia by flow cytometry, using the YOYO-1 staining, to assess the reduction of parasitaemia compared with the vehicle-treated mice.

In a further data set the test system is HepG2 cells. Put plainly: HepG2 cytotoxicity assay. The data set is classed as cell-based. The procedure, abridged: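 Steps: equilibrate plates and detection reagent at room temperature (30 min); dispense CellTiter-Glo; allow 10 min at room temperature; record luminescence.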
Data set [3] relates to P. falciparum stage V female gametocytes. Description: P. falciparum female gametocyte activation assay (Pf FGAA), 24 h or 48 h preincubation, Pfs25 expression readout. The data set is classed as cell-based, Plasmodium falciparum NF54. Particulars: for Pf FGAA classification: SLOW / FAST / GAMETE from activity at 48h, 24h, 0h incubation. The procedure, abridged:
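Purified stage V gametocytes from P. falciparum NF54 gametocyte cultures were exposed to compounds for 24 h or 48 h at 37 °C under 3% O2/5% CO2, then activated by temperature drop plus xanthurenic acid. Activated females were stained with Cy3-anti-Pfs25 (0.5 μg ml^−1) for 24 h at 26 °C and counted by high-content imaging; pIC50 by nonlinear regression.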

The subject of data set [4] is P. falciparum stages IV–V gametocytes. Put plainly: Gametocytocidal ATP-depletion assay (gametocyte ATP bioluminescence). The data set is classed as cell-based, Plasmodium falciparum. In a few lines:
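Purified stage IV–V gametocytes (12,500/well) incubated with compound for 48 h at 37 °C under 3% O2/5% CO2. ATP measured by BacTiter-Glo luminescence as a viability surrogate; hits tested at 2 μM single concentration.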

A short description of data set [5]: Artificial membrane permeability assay (AMPA). The data set is classed as in vitro ADME. The conditions noted are these: 10 μM, pH 7.05, 3 h. The protocol: It is a 96-well plate-based assay that measures the speed of permeation of a compound (at 10 μM concentration) through a phospholipid membrane, consisting in 1.8% egg L-a-phosphatidylcholine (830051, Avanti Polar Lipids) and 1% cholesterol (C8667, Sigma) dissolved in n-decane (D0011, TCI American). Phosphate buffer (50 mM Na2HPO4 with 0.5% 2-hydroxypropyl-b-cyclodextrin), pH 7.05, is added to the top and bottom of the plate (S5EJ046I08, MilliPore Corp.). The lipids are allowed to form bilayers across the small holes in the filter and compound concentration is measured 3 h later in both donor and the acceptor compartments by HPLC (Agilent 1100 LC). Permeability (P) (nm s^−1) is calculated using the following formulas:
where X=VD/VR; CR and CD are final concentrations in receiver and donor side, respectively; VR and VD are volumes in receiver and donor compartment, respectively; A is the area (cm^2) and t is the incubation time (s). The considered cut-off values are as follows: High: P>200 nm s^−1; Medium: 10 nm s^−1<P<200 nm s^−1; Low: P<10 nm s^−1.

Data set [6] has as its system P. falciparum female gametes. Description: Pf FGAA with compounds added 30 min after triggering gametocyte activation (gamete-targeting). The data set is classed as cell-based, Plasmodium falciparum NF54. The conditions noted are these: 0h incubation time.
Setting [7] is: TCAMS data, ref 1 (Gamo et al., 2010).
Where [8] appears, read: TCAMS data, ref 1 (Gamo, F. J. et al., Nature 465, 305-310, 2010).
Where [9] appears, read: 24h incubation time, read-out: Pf FGAA IC50 (µM) 24h.
Where [10] appears, read: mean, read-out: Gametocytes mean Pf FGAA IC50.
Setting [11] is: TCAMS asexual blood stage data, ref 1 (Gamo, F. J. et al., Nature 465, 305-310, 2010).

As a reminder, the ED50 is the dose at which the effect has come halfway, by size or by number of responders. Consider `CC(C)(C)CNCC(C)(C)c1nc(-c2ccc(Cl)c(O)c2)c(-c2ccncc2)[nH]1.Cl` [TCMDC-140549], for which the IC50 is 0.6 µM in data set [1] (setting [7]), 3.56 µM in data set [3] (setting [9]), 1.01 µM in data set [3] (setting [10]) and 0.51 µM in data set [6]. Also, the “Pf Asexual stages XC50” value in data set [1] (setting [8]) is 0.60 µM. Further, the “reduction of asexual blood stages parasitaemia (threshold 40% vs vehicle)” value in data set [2] (50 mg kg^−1 single dose 2-day oral treatment, mice) is listed as “not reduced above the threshold”. The median effective dose (ED50) in data set [2] (single dose 2-day treatment, oral, P. berghei mice) was above 50 mg/kg. For the same compound, in the data set with HepG2 cells (mean), the “HepG2 cells mean TOX50” value was 11.63 µM. Further, the “Pf FGAA classification” value in data set [3] is listed as “GAMETE”. Besides, the “Gametocytes mean ATP inhibition at 2µM (%)” value in data set [4] is given as -11.46%. For the same compound, the “permeability through artificial membranes” value in data set [5] was found to be 17 ×10⁻⁶ cm/s.
Regarding `CC(C)(C)c1ccc(CNCCOc2ccc(Nc3nnc(-c4ccc(-c5ncc[nH]5)cc4)o3)c3ccccc23)cc1.O=C(O)C(F)(F)F` [TCMDC-138667], the IC50 in data set [1] (setting [7]) is 0.14 µM; in data set [3] (setting [9]) it was 3.03 µM; in data set [3] (setting [10]), 0.62 µM; in data set [6], 13.2 µM. Moreover, in data set [1] (setting [8]), the “Pf Asexual stages XC50” value is given as 0.14 µM. The “HepG2 cells mean TOX50” value in the data set on HepG2 cells (mean) turned out to be 5.96 µM. Moreover, the “Pf FGAA classification” value in data set [3] was “SLOW”. Also, in data set [4], the “Gametocytes mean ATP inhibition at 2µM (%)” value is recorded as -11.45%.
Consider `CCN1CCC2(c3cccc(OC)c3)Cc3nc4ccccc4c(-c4ccccc4)c3CC2C1` (centres unmarked) [TCMDC-138968], for which the IC50 in data set [1] (setting [7]) was 0.35 µM; in data set [3] (setting [9]), above 20 µM; in data set [3] (setting [10]), 1.43 µM; in data set [6], above 20 µM. In data set [1] (setting [8]), the “Pf Asexual stages XC50” value is 0.79 µM. Further, the “HepG2 cells mean TOX50” value in the data set with HepG2 cells (mean) worked out at 33.25 µM. In addition, the “Pf FGAA classification” value in data set [3] is listed as “SLOW”. For the same compound, the “Gametocytes mean ATP inhibition at 2µM (%)” value in data set [4] is 21.53%.
`CC(C)(C)OC(=O)NCc1ccc(Nc2nnc(-c3cccc(C(=O)NCc4cc(C(F)(F)F)cc(C(F)(F)F)c4)c3)o2)cc1` [TCMDC-135229]: the IC50 in data set [1] (setting [11]) is 0.87 µM; in data set [3] (setting [9]) it was 2.41 µM; in data set [3] (P. falciparum female gametocytes, mean, read-out: Gametocytes mean Pf FGAA IC50), 3.14 µM; in data set [6] it was above 20 µM. In addition, the “Pf Asexual stages XC50” value in data set [1] (setting [8]) is on record as 0.87 µM. Further, the “HepG2 cells mean TOX50” value with HepG2 cells (HepG2 cells; mean) amounted to 21.43 µM. Also, in data set [3], the “Pf FGAA classification” value was “SLOW”. For the same compound, the “Gametocytes mean ATP inhibition at 2µM” value in data set [4] is on record as -6.34%.
As usually defined, the inhibition is the relative decrease from the control value, in per cent. Turning to `CN1CCC(N2CCC(Oc3cccc(C(=O)NCCCC4CCCC4)c3)CC2)CC1` [TCMDC-124677], the IC50 was 0.84 µM in data set [1] (setting [11]); 3.87 µM in data set [3] (Plasmodium falciparum, 24h incubation time, read-out: Pf FGAA IC50 (µM) 24h); 1.47 µM in data set [3] (Plasmodium falciparum, P. falciparum female gametocytes, mean, read-out: Gametocytes mean Pf FGAA IC50); above 20 µM in data set [6] (Plasmodium falciparum). In addition, the “Pf Asexual stages XC50” value in data set [1] (setting [8]) is given as 0.23 µM. Also, in the data set on HepG2 cells (HepG2 TOX50 versus Pf FGAA IC50), the Selectivity ratio amounted to 3.34. In the data set on HepG2 cells (HepG2 cells; mean), the “HepG2 cells mean TOX50” value is listed as 4.90 µM. The “Pf FGAA classification” value in data set [3] is reported as “SLOW”. In addition, in data set [4] (Plasmodium falciparum, mean), the inhibition at 2 µM was -0.79%.
`CN(C)CCN1CCN(CCCN2c3ccccc3Sc3ccc(C(F)(F)F)cc32)CC1.Cl` [TCMDC-142257]: the IC50 in data set [1] (setting [11]) is 0.76 µM; in data set [3] (setting [9]) it was 1.58 µM; in data set [3] (mean, P. falciparum female gametocyte activation assay, read-out: Gametocytes mean Pf FGAA IC50), 5.25 µM; in data set [6], above 20 µM. The “Pf Asexual stages XC50” value in data set [1] (setting [8]) is 0.76 µM. The “HepG2 cells mean TOX50” value in the data set on HepG2 cells (mean; HepG2 cells) stood at 77.62 µM. For the same compound, in data set [3], the “Pf FGAA classification” value is listed as “FAST”. Besides, the “Gametocytes mean ATP inhibition at 2µM” value in data set [4] is 23.41%.
As to `CC(C)(CN)c1nc(-c2ccc(Br)c(O)c2)c(-c2ccncc2)[nH]1.Cl` [TCMDC-140680], the IC50 in data set [1] (setting [7]) is 0.96 µM; in data set [3] (setting [9]), 0.79 µM; in data set [3] (setting [10]), 0.84 µM; in data set [6], 0.49 µM. Further, the “Pf Asexual stages XC50” value in data set [1] (setting [8]) was 0.39 µM. In addition, in the data set on HepG2 cells (mean), the “HepG2 cells mean TOX50” value is reported as 45.82 µM. For the same compound, in data set [3], the “Pf FGAA classification” value is reported as “GAMETE”. In addition, in data set [4], the “Gametocytes mean ATP inhibition at 2µM (%)” value is -3.29%.
Consider `CCn1c(-c2nonc2N)nc2c(-c3cccc(NC(=O)Nc4ccc5c(c4)CCC5)c3)ncc(OCCCN)c21.O=C(O)C(F)(F)F` [TCMDC-136191], for which the IC50 in data set [1] (setting [7]) is 0.78 µM; in data set [3] (setting [9]) it was 6.46 µM; in data set [3] (setting [10]), 1.03 µM; in data set [6] it was above 20 µM. Moreover, in data set [1] (setting [8]), the “Pf Asexual stages XC50” value is reported as 0.78 µM. For the same compound, the “HepG2 cells mean TOX50” value with HepG2 cells (mean) amounted to 7.42 µM. In addition, the “Pf FGAA classification” value in data set [3] was “SLOW”. Moreover, the “Gametocytes mean ATP inhibition at 2µM (%)” value in data set [4] was -19.55%.

The record behind these values is paper PMC5442318, “Hundreds of dual-stage antimalarial molecules discovered by a functional gametocyte screen” (Nature Communications, 2017).
